Experimental data as given in patent publication US20040259764A1, “Reticulocyte depletion signatures” (priority 2002, published 2004).
Read-outs that look alike come from different tables or passages of the source. Marks after values point to notes of the source that are not given here.

Key:
[1] = tested on: Reticulocyte Depletion Signature (Alas2 and peripherin probes), bone marrow
Description: (§1) Compound dosing was based on the acute dose LD50s recorded in published reference or literature sources. […] The MTD (maximum tolerated dose) was then selected as the dose at which the animals […] 5-10% body weight during the 5-day range finding study. […] In addition, the clinical observations must show no or mild clinical signs during the whole of the range-finding study. At the next highest dose, signs and symptoms of adverse effects and exceeding those of the MTD should be seen to occur. Should these criteria not be met, the range-finding study is repeated using a modified dose range.
(§2) After determination of the MTD and FED for a compound, each compound was dissolved in a vehicle for administration on day 1 of the study (additional daily doses were stored as frozen aliquots from this initial formulation). Each compound was administered to three individual male Sprague-Dawley rats for each of the two doses (MTD and FED) for one of four different times (0.25 day, 1 day, 3 days, and 5 days), yielding a total of up to 24 animals per compound study. Vehicle choice was based on solubility of the compound, effect of food on adsorption, and the vehicles used in the literature reports examined during the FED selection investigations, described above. Generally, the route and vehicle in which the FED was defined are used. When there was a choice of routes and vehicles, oral routes were chosen over injection routes. Many compounds, especially oncolytics, are only administerable intravenously. In such cases, the compound was administered as an intravenous formulation into the tail vein. Orally administered compounds were given dissolved in either water, 1% carboxymethycellulose (CMC) or corn oil. Intravenously and intraperitoneally administered compounds were given in 0.9% saline. Subcutaneously administered compounds were given in corn oil. Animal body weights were determined at 1 day and, where appropriate, at 4 days, before necropsy, and clinical observations were made on a daily basis. Control animals were dosed with vehicle only. Three male animals were used for each dose and time combination used for the compound treatment.
(§3) Tissue harvest and handling: After the allocated treatment time, the tissues from the animals were harvested. […] All the tissues collected were divided to provide samples for histopathological analyses, and the remainder of each tissue was then snap-frozen.
(§4) Preparation of enriched mRNA: Punch biopsies were taken from the frozen tissues and were completely homogenized before being processed using the MagNA Pure robot. (Roche Diagnostics Corp., Indianapolis, Ind.) in combination with the MagNA Pure LC RNA Isolation kit II (Roche Diagnostics Corp). The amount of lysis buffer was adjusted to allow 1 ml per 50 mg for liver tissue, or 1 ml per 80 mg for all other tissues. After complete homogenization and before loading of the samples into the 32-well MagNA Pure plate, the samples were syringed 5-6 times using a 20-gauge 3-ml syringe to ensure a smooth solution for robotic processing. Tissue sample processing was performed in duplicate wells (loading 150 μl of homogenized sample and 150 μl of additional lysis buffere to each well) of the MagNA Pure LC, which is programmed to extract mRNA using oligo-dT selection technology into a final elution volume of 100 μl. Poly A(+) RNA sample concentration was performed using a standard ethanol precipitation protocol in the presence of glycogen (50 μg/ml). After precipitation the final purified mRNA sample was resuspended in 7 μl DEPC-treated water and quantified using a Ribogreen high-range assay (Molecular Probes) on the Victor-Wallace II Fluorometer (Perkin-Elmer).

[2] = tested on: Reticulocyte Depletion Signature (Alas2 and peripherin probes), liver
Description: as §1, §2, §3, §4

[3] = bone marrow data, signature derived from liver, * = p < 0.01
[4] = liver data, highest training treatment normalised to 100, * = p < 0.01

SMILES	Signature Projection Score (SPS) ([2]; rat, in vivo)	other results
S=C=Nc1cccc2ccccc12 [1-NAPHTHYL ISOTHIOCYANATE]		SPS (Bone Marrow) [1, 3]: 0
C[C@]12CCC(=O)C=C1CC[C@@H]1[C@@H]2CC[C@@]2(C)[C@H]1CC[C@]2(C)O [17-METHYLTESTOSTERONE]		Signature Projection Score (SPS) [2, 4]: 59*
CC(C)c1c(C(=O)Nc2ccccc2)c(-c2ccccc2)c(-c2ccc(F)cc2)n1CC[C@@H](O)C[C@@H](O)CC(=O)O [ATORVASTATIN]	29	
C[C@]12CC[C@@H]3c4ccc(O)cc4CC[C@H]3[C@@H]1CC[C@@H]2O [BETA ESTRADIOL]		Signature Projection Score (SPS) [2, 4]: 27
CC(C)(Oc1ccc(CCNC(=O)c2ccc(Cl)cc2)cc1)C(=O)O [BEZAFIBRATE]	16	
ClC(Cl)(Cl)Cl [CARBON TETRACHLORIDE]		SPS (Bone Marrow) [1, 3]: 0
COc1cccc2c1C(=O)c1c(O)c3c(c(O)c1C2=O)C[C@@](O)(C(C)=O)C[C@@H]3O[C@H]1C[C@H](N)[C@H](O)[C@H](C)O1 [DAUNORUBICIN]		SPS (Bone Marrow) [1, 3]: 0
C[C@@H]1C[C@H]2[C@@H]3CCC4=CC(=O)C=C[C@]4(C)[C@@]3(F)[C@@H](O)C[C@]2(C)[C@@]1(O)C(=O)CO [DEXAMETHASONE]	22	
C[C@H]1O[C@@H](n2cc(F)c(=O)[nH]c2=O)[C@H](O)[C@@H]1O [DOXIFLURIDINE]		SPS (Bone Marrow) ([1]; rat, in vivo): 0
C[C@]12CC[C@@H]3c4ccc(O)cc4CC[C@H]3[C@@H]1C[C@@H](O)[C@@H]2O [ESTRIOL]	41	
CCO [ETHANOL]		SPS (Bone Marrow) ([1]; rat, in vivo): 0
C#C[C@]1(O)CC[C@H]2[C@@H]3CCc4cc(O)ccc4[C@H]3CC[C@@]21C [ETHINYLESTRADIOL]	75*	
OC(Cn1cncn1)(Cn1cncn1)c1ccc(F)cc1F [FLUCONAZOLE]	26	
CC(C)n1c(/C=C/C(O)CC(O)CC(=O)O)c(-c2ccc(F)cc2)c2ccccc21 (centres unmarked) [FLUVASTATIN]	0	
Cc1ccc(C)c(OCCCC(C)(C)C(=O)O)c1 [GEMFIBROZIL]	18	
CC1=C(/C=C/C(C)=C/C=C/C(C)=C\C(=O)O)C(C)(C)CCC1 [ISOTRETINOIN]	23	
CC(=O)N1CCN(c2ccc(OCC3COC(Cn4ccnc4)(c4ccc(Cl)cc4Cl)O3)cc2)CC1 (centres unmarked) [KETOCONAZOLE]	29	
CC[C@H](C)C(=O)O[C@H]1C[C@@H](C)C=C2C=C[C@H](C)[C@H](CC[C@@H]3C[C@@H](O)CC(=O)O3)[C@H]21 [LOVASTATIN]	26	
Clc1ccc(COC(Cn2ccnc2)c2ccc(Cl)cc2Cl)c(Cl)c1 (centres unmarked) [MICONAZOLE]	38	
CC#C[C@]1(O)CC[C@H]2[C@@H]3CCC4=CC(=O)CCC4=C3[C@@H](c3ccc(N(C)C)cc3)C[C@@]21C [MIFEPRISTONE]	24	
COc1c(C)c2c(c(O)c1C/C=C(\C)CCC(=O)OCCN1CCOCC1)C(=O)OC2 [MYCOPHENOLATE MOFETIL]		SPS (Bone Marrow) [1, 3]: 0
C#C[C@]1(OC(C)=O)CC[C@H]2[C@@H]3CCC4=CC(=O)CC[C@@H]4[C@H]3CC[C@@]21C [NORETHINDRONE ACETATE]	26	
O=C1[O][Pt]2([NH][C@@H]3CCCC[C@H]3[NH]2)[O]C1=O [OXALIPLATIN]		SPS (Bone Marrow) [1, 3]: 18
O=C(c1ccc(OCCN2CCCCC2)cc1)c1c(-c2ccc(O)cc2)sc2cc(O)ccc12 [RALOXIFENE]	23	
CC[C@]1(O)C[C@@H]2CN(CCc3c([nH]c4ccccc34)[C@@](C(=O)OC)(c3cc4c(cc3OC)N(C)[C@H]3[C@@](O)(C(=O)OC)[C@H](OC(C)=O)[C@]5(CC)C=CCN6CC[C@]43[C@@H]65)C2)C1 [VINBLASTINE]		SPS (Bone Marrow) ([1]; rat, in vivo): 0
CC[C@]1(O)C[C@H]2CN(CCc3c([nH]c4ccccc34)[C@@](C(=O)OC)(c3cc4c(cc3OC)N(C=O)[C@H]3[C@@](O)(C(=O)OC)[C@H](OC(C)=O)[C@]5(CC)C=CCN6CC[C@]43[C@@H]65)C2)C1 [VINCRISTINE]		SPS (Bone Marrow) ([1]; rat, in vivo): 126*
